According to US20140065103A1 (VERTEX PHARMACEUTICALS INCORPORATED, priority 2010, published 2014):
Where two headings read alike, the source gives them in different places.

Legend:
[1] = test system: HCV replicon (genotype 1b) in Huh7 hepatoma cell line ET; assay: microbe, parasite or virus in culture; assay type: cell-based, Hepatitis C virus; settings: read-out: HCV-Replicon-1b_IC50
[2] = test system: Huh-7 ET, Molt-4, DU-145, Hep-G2 and SH-SY5Y cells; assay: [3H]Thymidine incorporation assay (cytotoxicity, CC50); settings: [3H]thymidine incorporation; cell line not given
[3] = test system: HCV sub-genomic replicon of genotype 1a in replicon cell line W11.8; assay: microbe, parasite or virus in culture; assay type: cell-based, Hepatitis C virus; settings: read-out: HCV-Replicon-ELISA-1a IC50
[4] = [3H]Thymidine incorporation assay (cytotoxicity, CC50); settings: human

Row | Compound | IC50 [1] [nM] | CC50 [2] [nM] | IC50 [3] [nM] | IC50 ([1]; Hepatitis C virus, Huh-7, 96 h) [nM] | CC50 at 72 h [4] [nM]
1 | CC(C)C#Cc1cc(N(C(=O)[C@H]2CC[C@H](C)CC2)[C@H]2CC[C@H](O)CC2)c(C(=O)O)s1 [Compound 4, 5-(3-methylbut-1-ynyl)-3-[(4-trans-hydroxycyclohexyl)-(4-trans-methylcyclohexanecarbonyl)amino]thiophene-2-carboxylic acid] | < 100 | 10000 to 100000 | < 100 |  | 
2 | CCO[C@H]1CC[C@H](N(c2cc(C#CC(C)(C)C)sc2C(=O)O)C(=O)[C@H]2CC[C@H](C)CC2)CC1 [Compound 35, 5-(3,3-Dimethylbut-1-yn-1-yl)-3-((N-4-trans-ethoxycyclohexyl)-4-trans-methylcyclohexanecarboxamido)thiophene-2-carboxylic acid] | < 100 | 10000 to 100000 | 100 to 1000 |  | 
3 | CC(C)(C)C#Cc1cc(N(C(=O)[C@H]2CC[C@H](C)CC2)[C@H]2CC[C@H](OC3CC3)CC2)c(C(=O)O)s1 [Compound 38, 5-(3,3-Dimethylbut-1-yn-1-yl)-3-((N-4-trans-cyclopropoxycyclohexyl)-4-trans-methylcyclohexanecarboxamido)thiophene-2-carboxylic acid] | < 100 | 10000 to 100000 | 100 to 1000 |  | 
4 | CC(C)(C)C#Cc1cc(N(C(=O)c2ccc(Cl)cc2F)[C@H]2CC[C@H](O)CC2)c(C(=O)O)s1 [Compound 91, 3-[(4-Chloro-2-fluoro-benzoyl)-(trans-4-hydroxy-cyclohexyl)-amino]-5-(3,3-dimethyl-but-1-ynyl)-thiophene-2-carboxylic acid] |  |  |  | 100 to 1000 | 10000 to 100000
5 | CC(C)C#Cc1cc(N(C(=O)[C@H]2CC[C@H](C)CC2)C2CCN(C(=O)CCCCCN)CC2)c(C(=O)O)s1 [Compound 95, 3-((trans-4-Methylcyclohexanecarbonyl)-(1-(6-amino-hexanoyl)-piperidin-4-yl)amino)-5-(3-methylbut-1-ynyl)thiophene-2-carboxylic acid] |  |  |  | 100 to 1000 | 10000 to 100000
6 | Methyl-5-(3,3-dimethylbut-1-yn-1-yl)-3-(trans-4-methyl-N-(cis-3-((dimethylamino)methyl)cyclobutyl)cyclohexanecarboxamido)thiophene-2 carboxylate [Compound 65] | < 100 | 10000 to 100000 | < 100 |  | 
